Experimental findings from patent US20230279020A9, “CARM1 INHIBITORS AND USES THEREOF” (Epizyme, Inc., priority 2013, published 2023) are described below.

Sequence of Human CARM1 (PRMT4) (Q86X55 other isoform, or with tags, fused parts or gaps isoform Q86X55-1): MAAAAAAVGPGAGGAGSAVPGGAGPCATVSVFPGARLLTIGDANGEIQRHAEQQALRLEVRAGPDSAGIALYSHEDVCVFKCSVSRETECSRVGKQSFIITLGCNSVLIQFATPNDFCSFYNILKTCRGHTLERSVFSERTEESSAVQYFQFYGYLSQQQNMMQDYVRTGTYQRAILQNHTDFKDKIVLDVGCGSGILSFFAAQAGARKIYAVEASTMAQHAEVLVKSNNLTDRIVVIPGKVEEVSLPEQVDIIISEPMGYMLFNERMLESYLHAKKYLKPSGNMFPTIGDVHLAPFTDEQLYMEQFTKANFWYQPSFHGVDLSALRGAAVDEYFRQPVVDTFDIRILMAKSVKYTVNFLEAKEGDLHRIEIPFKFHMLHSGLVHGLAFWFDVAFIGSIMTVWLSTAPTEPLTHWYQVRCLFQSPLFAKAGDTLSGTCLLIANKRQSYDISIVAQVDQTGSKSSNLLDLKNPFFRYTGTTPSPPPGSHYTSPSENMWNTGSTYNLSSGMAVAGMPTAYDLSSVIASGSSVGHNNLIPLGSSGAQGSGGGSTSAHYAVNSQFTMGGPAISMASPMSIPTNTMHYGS

This test addresses Human CARM1 (PRMT4) (Homo sapiens (Human), UniProt Q86X55). The test is described as follows: CARM1 enzyme assay on peptide substrate (3H-SAM Flashplate). The following applies: Biochemical potencies, classification codes; read-out: Biochem IC50.
As for `CNCC(O)COc1cc(Cl)cc(-c2nc(C(=O)NCC3CCOCC3)cc(N(C)C3CCOCC3)n2)c1` (stereo not shown) [Example 508-1a], the IC50 (usually the point on the concentration scale where inhibition reaches its midpoint) was < 100 nM.
Take `CNCC(O)COc1cccc(-c2nc(-c3ccnc(C(=O)NC)c3)cc(N(C)C3CCOCC3)n2)c1` (stereo not shown) [Example 510-1a]: the IC50 is < 100 nM.
For `CNC[C@@H](O)COc1cccc(-c2nc(-c3cn(S(C)(=O)=O)c4ncncc34)cc(N(C)C3CCOCC3)n2)c1` [Example 511-1a], the half-maximal inhibitory concentration (IC50) is < 100 nM.
Consider `CNCC(O)COc1cccc(-c2nc(-c3ccc(N4CCOCC4)nn3)cc(N(C)C3CCOCC3)n2)c1` (stereo not shown) [Example 512-1a], for which the IC50 is < 100 nM.
Turning to `CNCC(O)COc1cccc(-c2nc(Nc3ncc(C)cn3)cc(N(C)C3CCOCC3)n2)c1` (stereo not shown) [Example 513-1a], the IC50 is < 100 nM.
Regarding `CNCC(O)COc1cccc(-c2nc(-c3cnc4c(C(=O)N(C)C)cnn4c3)cc(N(C)C3CCOCC3)n2)c1` (stereo not shown) [Example 514-1a], the IC50 is < 100 nM.
In the case of `CNCC(O)COc1cccc(-c2nc(-c3cnn(CC(C)C)c3)cc(N(C)C3CCOCC3)n2)c1` (stereo not shown) [Example 516-1a], the IC50 was < 100 nM.
Regarding `CNCC(O)COc1cccc(-c2nc(-c3cnc(C)n3C)cc(N(C)C3CCOCC3)n2)c1` (stereo not shown) [Example 517-1a], the IC50 is < 100 nM.
As for `CNCC(O)COc1cccc(-c2nc(-c3nc(C)cn3C)cc(N(C)C3CCOCC3)n2)c1` (stereo not shown) [Example 519-1a], the figure is < 100 nM.
Take `CNCC(O)COc1cccc(-c2nc(-c3nc(C)c[nH]3)cc(N(C)C3CCOCC3)n2)c1` (stereo not shown) [Example 521-1a]: the IC50 was < 100 nM.
The same measure for `CNCC(O)COc1cc(Cl)cc(-c2nc(-c3ccncc3C3CC3)cc(N(C)C3CCOCC3)n2)c1` (stereo not shown) [Example 522-1a]: < 100 nM; for `CNCC(O)COc1cccc(-c2nc(N3CCO[C@H](CN)C3)cc(N(C)C3CCOCC3)n2)c1` (stereo partly shown) [Example 524-1a]: < 100 nM; for `CNCC(O)COc1cccc(-c2nc(-c3cncnc3)cc(N(C)C3CCOCC3)n2)c1` (stereo not shown) [Example 525-1a]: < 100 nM.
Turning to `CNC[C@@H](O)COc1cccc(-c2nc(-c3c[nH]c4ncncc34)c(C)c(N(C)C3CCOCC3)n2)c1` [Example 526-1a], the IC50 was < 100 nM.
With `CNCC(O)COc1cccc(-c2nc(-c3c(C)nn(C)c3C)cc(N(C)C3CCOCC3)n2)c1` (stereo not shown) [Example 528-1a], the IC50 was < 100 nM.
For `CNCC(O)COc1cccc(-c2nc(-c3cn(C)c(C)n3)cc(N(C)C3CCOCC3)n2)c1` (stereo not shown) [Example 529-1a], the concentration for half-maximal inhibition (IC50) is < 100 nM.
`CNCC(O)COc1cccc(-c2nc(N3CCN(C)CC3)cc(N(C)C3CCOCC3)n2)c1` (stereo not shown) [Example 531-1a]: the IC50 was < 100 nM.
As for `CNCC(O)COc1cccc(-c2nc(-c3cnc4ncnn4c3)cc(N(C)C3CCOCC3)n2)c1` (stereo not shown) [Example 536-1a], the figure is < 100 nM; as for `CNCC(O)COc1cccc(-c2nc(-c3ccncc3)c(C)c(N(C)C3CCOCC3)n2)c1` (stereo not shown) [Example 537-1a], < 100 nM.
`CNCC(O)COc1cccc(-c2nc(N3CCC[C@H](O)C3)cc(N(C)C3CCOCC3)n2)c1` (stereo partly shown) [Example 538-1a]: the IC50 is < 100 nM.
As for `CNCC(O)COc1cccc(-c2nc(-c3ccnc(OC)c3)cc(N(C)C3CCOCC3)n2)c1` (stereo not shown) [Example 541-1a], the IC50 was < 100 nM.
Consider `CNCC(O)COc1cccc(-c2nc(N(C)C3CCOCC3)cc(-n3cccn3)n2)c1` (stereo not shown) [Example 542-1a], for which the IC50 is < 100 nM.
Consider `CNCC(O)COc1cccc(-c2nc(N(C)C3CCOCC3)cc(N3C[C@@H]4C[C@H]3CN4C)n2)c1` (stereo partly shown) [Example 543-1a], for which the half-maximal inhibitory concentration (IC50) is < 100 nM.
For the compound `CNCC(O)COc1cccc(-c2nc(C(C)=O)c(C)c(N(C)C3CCOCC3)n2)c1` (stereo not shown) [Example 544-1a], the IC50 is < 100 nM.
The same measure for `CNCC(O)COc1cccc(-c2nc(C(=O)NCC3CCOCC3)cc(N(C)C3CCOCC3)n2)c1` (stereo not shown) [Example 548-1a]: < 100 nM; for `CNCC(O)COc1cccc(-c2nc(N3CCN(C)C(=O)C3)cc(N(C)C3CCOCC3)n2)c1` (stereo not shown) [Example 549-1a]: < 100 nM; for `CNCC(O)COc1cccc(-c2nc(N3CC4(CCNCC4)c4ccccc43)cc(N(C)C3CCOCC3)n2)c1` (stereo not shown) [Example 559-1a]: < 100 nM.
Turning to `CNCC(O)COc1cccc(-c2nc(N3CCNCC3)c(C)c(N(C)C3CCOCC3)n2)c1` (stereo not shown) [Example 560-1a], the half-inhibitory concentration (IC50) is < 100 nM.
As for `CNCC(O)COc1cc(Cl)cc(-c2nc(-c3cnc4ccccn34)c(C)c(N(C)C3CCOCC3)n2)c1` (stereo not shown) [Example 561-1a], the IC50 was < 100 nM.
On to `CNCC(O)COc1cccc(-c2nc(N(C)C3CCOCC3)cc(N3C[C@H]4C[C@@H]3CN4)n2)c1` (stereo partly shown) [Example 562-1a], for which the concentration for half-maximal inhibition (IC50) was < 100 nM.
For the compound `CNCC(O)COc1cccc(-c2nc(-c3cnc4n3CCNC4)cc(N(C)C3CCOCC3)n2)c1` (stereo not shown) [Example 563-1a], the IC50 was < 100 nM.
The same measure for `CNCC(O)COc1cccc(-c2nc(-c3cnc4ccnn4c3)cc(N(C)C3CCOCC3)n2)c1` (stereo not shown) [Example 564-1a]: < 100 nM; for `CCOC(=O)c1sc(-c2cc(N(C)C3CCOCC3)nc(-c3cccc(OCC(O)CNC)c3)n2)nc1C` (stereo not shown) [Example 565-1a]: < 100 nM; for `CNCC(O)COc1cccc(-c2nc(N3CC4CCC(C3)O4)cc(N(C)C3CCOCC3)n2)c1` (stereo not shown) [Example 566-1a]: < 100 nM.
The same measure for `CNCC(O)COc1cccc(-c2nc(N(C)C3CCOCC3)c(C)c(N3CCNC[C@@H]3C)n2)c1` (stereo partly shown) [Example 567-1a]: < 100 nM; for `CNCC(O)COc1cccc(-c2nc(N(C)C3CCOCC3)cc(-n3nc(C)cc3C)n2)c1` (stereo not shown) [Example 568-1a]: < 100 nM.
For `CNCC(O)COc1cccc(-c2nc(-c3sc(C)nc3C)cc(N(C)C3CCOCC3)n2)c1` (stereo not shown) [Example 569-1a], the IC50 is < 100 nM.
Turning to `CNCC(O)COc1cccc(-c2nc(-c3cc4ccccc4o3)cc(N(C)C3CCOCC3)n2)c1` (stereo not shown) [Example 570-1a], the IC50 was < 100 nM.
With `CNC[C@@H](O)COc1cccc(-c2nc(-c3c[nH]c4ncncc34)cc(N(C)C3CCOCC3)n2)c1` [Example 571-1a], the IC50 was < 100 nM.
As to `CNCC(O)COc1cccc(-c2nc(-c3cnc(CO)n3C)cc(N(C)C3CCOCC3)n2)c1` (stereo not shown) [Example 572-1a], the IC50 is < 100 nM.
On to `CNCC(O)COc1cccc(-c2nc(SC)cc(N(C)C3CCOCC3)n2)c1` (stereo not shown) [Example 573-1a], for which the IC50 was < 100 nM.
As for `CNCC(O)COc1cc(Cl)cc(-c2nc(-c3ccncc3)c(C3CC3)c(N(C)C3CCOCC3)n2)c1` (stereo not shown) [Example 574-1a], the figure is < 100 nM.
Turning to `CNCC(O)COc1cccc(-c2nc(N3CCNC(=O)C3)cc(N(C)C3CCOCC3)n2)c1` (stereo not shown) [Example 575-1a], the IC50 was < 100 nM.
As for `CNCC(O)COc1cccc(-c2nc(N3CCN4C(=O)OC[C@@H]4C3)cc(N(C)C3CCOCC3)n2)c1` (stereo partly shown) [Example 576-1a], the half-maximal inhibitory concentration (IC50) is < 100 nM.
For `CNCC(O)COc1cc(Cl)cc(-c2nc(C(=O)N(C)CC3CCOCC3)cc(N(C)C3CCOCC3)n2)c1` (stereo not shown) [Example 577-1a], the IC50 is < 100 nM.
Turning to `CNCC(O)COc1cccc(-c2nc(N3CCN(CCF)[C@@H](C)C3)cc(N(C)C3CCOCC3)n2)c1` (stereo partly shown) [Example 578-1a], the IC50 is < 100 nM.
On to `CNCC(O)COc1cccc(-c2nc(N3CCC4(CCO4)CC3)cc(N(C)C3CCOCC3)n2)c1` (stereo not shown) [Example 579-1a], for which the IC50 was < 100 nM.
Consider `CNCC(O)COc1cccc(-c2nc(-c3cncn3C)cc(N(C)C3CCOCC3)n2)c1` (stereo not shown) [Example 580-1a], for which the IC50 is < 100 nM.
Consider `CNCC(O)COc1cccc(-c2nc(N3CCN(C(=O)OC)[C@@H](C)C3)cc(N(C)C3CCOCC3)n2)c1` (stereo partly shown) [Example 581-1a], for which the IC50 is < 100 nM.
As for `CNCC(O)COc1cc(Cl)cc(-c2nc(-c3ccnc(N(C)C)c3)cc(N(C)C3CCOCC3)n2)c1` (stereo not shown) [Example 609-1a], the figure is < 100 nM; as for `CNCC(O)COc1cc(Cl)cc(-c2nc(-c3cnn(C)c3)cc(N(C)C3CCOCC3)n2)c1` (stereo not shown) [Example 610-1a], < 100 nM; as for `CNCC(O)COc1cc(Cl)cc(-c2nc(-c3ccncc3)c(Br)c(N(C)C3CCOCC3)n2)c1` (stereo not shown) [Example 611-1a], < 100 nM.
Take `CNCC(O)COc1cc(Cl)cc(-c2nc(-c3cnc4ccccc4n3)c(C)c(N(C)C3CCOCC3)n2)c1` (stereo not shown) [Example 612-1a]: the IC50 is < 100 nM.
As for `CNCC(O)COc1cccc(-c2nc(-c3ccc(C(F)(F)F)nc3)cc(N(C)C3CCOCC3)n2)c1` (stereo not shown) [Example 613-1a], the figure is < 100 nM; as for `CNCC(O)COc1cc(Cl)cc(-c2nc(-c3ccc(N(C)C)nc3)c(C)c(N(C)C3CCOCC3)n2)c1` (stereo not shown) [Example 614-1a], < 100 nM.
Regarding `CNCC(O)COc1cccc(-c2nc(C3CCNCC3)cc(N(C)C3CCOCC3)n2)c1` (stereo not shown) [Example 615-1a], the IC50 is < 100 nM.
On to `CNCC(O)COc1cccc(-c2nc(-c3cccc4ncccc34)cc(N(C)C3CCOCC3)n2)c1` (stereo not shown) [Example 616-1a], for which the IC50 was < 100 nM.
As for `CNCC(O)COc1cc(Cl)cc(-c2nc(-c3cn[nH]c3)c(C)c(N(C)C3CCOCC3)n2)c1` (stereo not shown) [Example 617-1a], the half-maximal inhibitory concentration (IC50) is < 100 nM.
Regarding `CNCC(O)COc1cc(Cl)cc(-c2nc(N(C)C3CCOCC3)c(C)c(-n3cccn3)n2)c1` (stereo not shown) [Example 618-1a], the IC50 is < 100 nM.
`C=C(C)c1cc(N(C)C2CCOCC2)nc(-c2cc(Cl)cc(OCC(O)CNC)c2)n1` (stereo not shown) [Example 619-1a]: the IC50 was < 100 nM.
With `CNCC(O)COc1cccc(-c2nc(-c3cnc4nccn4c3)cc(N(C)C3CCOCC3)n2)c1` (stereo not shown) [Example 620-1a], the IC50 is < 100 nM.
Turning to `CNCC(O)COc1cccc(-c2nc(C3=CCCC3)cc(N(C)C3CCOCC3)n2)c1` (stereo not shown) [Example 621-1a], the IC50 was < 100 nM.
Turning to `CNCC(O)COc1cccc(-c2nc(-c3cccc(C#N)c3)cc(N(C)C3CCOCC3)n2)c1` (stereo not shown) [Example 622-1a], the IC50 is < 100 nM.
Take `CNCC(O)COc1cc(Cl)cc(-c2nc(C(=O)OC)cc(N(C)C3CCOCC3)n2)c1` (stereo not shown) [Example 623-1a]: the IC50 is < 100 nM.
As for `CNCC(O)COc1cccc(-c2nc(-c3nc(C)cs3)cc(N(C)C3CCOCC3)n2)c1` (stereo not shown) [Example 624-1a], the IC50 was < 100 nM.
Take `CNCC(O)COc1cc(Cl)cc(-c2nc(-c3ccncc3)cc(N3CCOCC3)n2)c1` (stereo not shown) [Example 632-1a]: the IC50 was < 100 nM.
Consider `CNCC(O)COc1cccc(-c2nc(NC3CCOCC3)c(C)c(N3CCN(C(C)C)CC3)n2)c1` (stereo not shown) [Example 644-1a], for which the IC50 is < 100 nM.
